The nature of the assay: radical trapping test (ABTS radical cations). Conditions: 20 μM, 5 to 120 minutes, FIG. 5. The method, then: The antioxidant 1 (freeze-dried powder of protease degradation product) produced was evaluated for the radical trapping activity against ABTS radical cations (unnatural model radical), according to the spectrophotometric method described in Biol. Pharm. Bull., 29, 766-771 (2006). Specifically, the antioxidant 1 was added to 3 mL of a reaction solution containing ABTS radical cations to be a final concentration of 300 μg/mL, and at the time after 5 minutes, 15 minutes, 30 minutes, 60 minutes and 120 minutes, the residual ratio of the ABTS radical cations was determined. For comparison, a system added with ascorbic acid or arbutin in an amount of 20 μM each in place of the antioxidant 1, and a system added with water in the same amount as that of the antioxidant 1 (control) were tested in the same manner.

With `OC[C@H]1O[C@@H](Oc2ccc(O)cc2)[C@H](O)[C@@H](O)[C@@H]1O` [arbutin], the “course of the radical residual ratio with the lapse of time” value is on record as “did not change after further lapse of time”.
As to `O=C1O[C@H]([C@@H](O)CO)C(O)=C1O` [ascorbic acid], the “course of the radical residual ratio with the lapse of time” value is given as “did not change after further lapse of time”.

The values are drawn from patent US11911417B2, “Nerve growth promoter and method for producing same, internal preparation, medium additive, cell dilution additive, medium, cell dilution, antioxidant and method for producing same, external preparation, and wound treatment agent and method for producing same” (LAIMU CORPORATION, priority 2016, dated 2024).
